Data from patent publication US20230150960A1, “COMPOSITIONS AND METHODS OF USING CYANINE DYES TO TARGET CANCER AND MITOCHONDRIA” (Thomas Jefferson University, priority 2020, published 2023).

How the values were obtained:
Assay type in all cases: physicochemical
[1] = Solubility of glycerol-containing formulations (post vortexing, 30 min and overnight at 18° C.); conditions: glycerol-containing formulation, compound 2 mg/mL; for solubility at 30 min / solubility: 18 °C; for solubility at 30 min: after 30 minutes incubation at 18° C.; for solubility: overnight incubation at 18° C.; for solubility at 30 s: post vortexing
Description: (§1) Tables 3A, 3B, and 3C describe solubility experiments conducted with the indicated compounds under the listed conditions. Vortexing was conducted using a Denville Vortexer 59 (Denville Scientific Inc.), at maximum speed for 30 seconds. As used herein, the term overnight refers to a period lasting at least about 12-24 hours.

[2] = Solubility of sodium deoxycholate-containing formulations (post vortexing, 30 min and overnight at 18° C.); conditions: compound 2 mg/mL; for solubility at 30 s: post vortexing
Description: as §1, with “5A, 5B,” for “3A, 3B,”, “5C” for “3C”

[3] = Solubility of BSA-containing formulations (post vortexing, 30 min and overnight at 18° C.); conditions: BSA-containing formulation, aqueous with cosolvent or surfactant or cyclodextrin, compound 2 mg/mL; for solubility at 30 min / solubility: 18 °C; for solubility at 30 min: after 30 minutes incubation at 18° C.; for solubility: overnight incubation at 18° C.; for solubility at 30 s: post vortexing
Description: Vortexing was conducted using a Denville Vortexer 59 (Denville Scientific Inc.), at maximum speed for 30 seconds. As used herein, the term overnight refers to a period lasting at least about 12-24 hours.

Q: What does the source list for `CCN1/C(=C/C=C/c2oc3ccccc3[n+]2CC)Oc2ccccc21` [JAC-R1, 3′,3′-Diethyloxacarbocyanine iodide]?
A: solubility at 30 min ([1]; aqueous with cosolvent or surfactant or cyclodextrin, 10% glycerol, read-out: Solubility of glycerol-containing formulations after 30 min incubation at 18° C., 10%): < 2000 µg/mL; solubility ([1]; aqueous with cosolvent or surfactant or cyclodextrin, 10% glycerol, read-out: Solubility of glycerol-containing formulations after overnight incubation at 18° C., 10%): < 2000 µg/mL; solubility at 30 min ([1]; aqueous with cosolvent or surfactant or cyclodextrin, 20% glycerol, read-out: Solubility of glycerol-containing formulations after 30 min incubation at 18° C., 20%): < 2000 µg/mL; solubility ([1]; aqueous with cosolvent or surfactant or cyclodextrin, 20% glycerol, read-out: Solubility of glycerol-containing formulations after overnight incubation at 18° C., 20%): < 2000 µg/mL; solubility at 30 min ([1]; aqueous with cosolvent or surfactant or cyclodextrin, 30% glycerol, read-out: Solubility of glycerol-containing formulations after 30 min incubation at 18° C., 30%): < 2000 µg/mL; solubility ([1]; aqueous with cosolvent or surfactant or cyclodextrin, 30% glycerol, read-out: Solubility of glycerol-containing formulations after overnight incubation at 18° C., 30%): < 2000 µg/mL; solubility at 30 min ([1]; aqueous with cosolvent or surfactant or cyclodextrin, 40% glycerol, read-out: Solubility of glycerol-containing formulations after 30 min incubation at 18° C., 40%): < 2000 µg/mL; solubility ([1]; aqueous with cosolvent or surfactant or cyclodextrin, 40% glycerol, read-out: Solubility of glycerol-containing formulations after overnight incubation at 18° C., 40%): < 2000 µg/mL; solubility at 30 min ([1]; aqueous with cosolvent or surfactant or cyclodextrin, 50% glycerol, read-out: Solubility of glycerol-containing formulations after 30 min incubation at 18° C., 50%): < 2000 µg/mL; solubility ([1]; aqueous with cosolvent or surfactant or cyclodextrin, 50% glycerol, read-out: Solubility of glycerol-containing formulations after overnight incubation at 18° C., 50%): < 2000 µg/mL; solubility at 30 min ([1]; 0% glycerol, read-out: Solubility of glycerol-containing formulations after 30 min incubation at 18° C., 0%): < 2000 µg/mL; solubility ([1]; 0% glycerol, read-out: Solubility of glycerol-containing formulations after overnight incubation at 18° C., 0%): < 2000 µg/mL; solubility at 30 s ([1]; aqueous with cosolvent or surfactant or cyclodextrin, 10% glycerol, read-out: Solubility of glycerol-containing formulations post vortexing, 10%): < 2000 µg/mL; solubility at 30 s ([1]; aqueous with cosolvent or surfactant or cyclodextrin, 20% glycerol, read-out: Solubility of glycerol-containing formulations post vortexing, 20%): < 2000 µg/mL; solubility at 30 s ([1]; aqueous with cosolvent or surfactant or cyclodextrin, 30% glycerol, read-out: Solubility of glycerol-containing formulations post vortexing, 30%): < 2000 µg/mL; solubility at 30 s ([1]; aqueous with cosolvent or surfactant or cyclodextrin, 40% glycerol, read-out: Solubility of glycerol-containing formulations post vortexing, 40%): < 2000 µg/mL; solubility at 30 s ([1]; aqueous with cosolvent or surfactant or cyclodextrin, 50% glycerol, read-out: Solubility of glycerol-containing formulations post vortexing, 50%): < 2000 µg/mL; solubility at 30 s ([1]; 0% glycerol, read-out: Solubility of glycerol-containing formulations post vortexing, 0%): < 2000 µg/mL; Solubility of sodium deoxycholate-containing formulations after 30 min incubation at 18° C., 50 mg/mL ([2]; sodium deoxycholate 50 mg/mL, after 30 minutes incubation at 18° C.): MFG; Solubility of sodium deoxycholate-containing formulations after 30 min incubation at 18° C., 100 mg/mL ([2]; sodium deoxycholate 100 mg/mL, after 30 minutes incubation at 18° C.): MFG; solubility at 30 s ([2]; sodium deoxycholate-containing formulation, aqueous with cosolvent or surfactant or cyclodextrin, sodium deoxycholate 12.5 mg/mL, read-out: Solubility of sodium deoxycholate-containing formulations post vortexing, 12.5 mg/mL): < 2000 µg/mL; solubility at 30 s ([2]; sodium deoxycholate-containing formulation, aqueous with cosolvent or surfactant or cyclodextrin, sodium deoxycholate 25 mg/mL, read-out: Solubility of sodium deoxycholate-containing formulations post vortexing, 25 mg/mL): < 2000 µg/mL; solubility at 30 s ([2]; sodium deoxycholate-containing formulation, aqueous with cosolvent or surfactant or cyclodextrin, sodium deoxycholate 50 mg/mL, read-out: Solubility of sodium deoxycholate-containing formulations post vortexing, 50 mg/mL): < 2000 µg/mL; solubility at 30 s ([2]; sodium deoxycholate-containing formulation, aqueous with cosolvent or surfactant or cyclodextrin, sodium deoxycholate 100 mg/mL, read-out: Solubility of sodium deoxycholate-containing formulations post vortexing, 100 mg/mL): < 2000 µg/mL; solubility at 30 min ([2]; sodium deoxycholate-containing formulation, aqueous with cosolvent or surfactant or cyclodextrin, sodium deoxycholate 12.5 mg/mL, after 30 minutes incubation at 18° C.): < 2000 µg/mL; solubility ([2]; sodium deoxycholate-containing formulation, aqueous with cosolvent or surfactant or cyclodextrin, sodium deoxycholate 12.5 mg/mL, overnight incubation at 18° C., read-out: Solubility of sodium deoxycholate-containing formulations after overnight incubation at 18° C., 12.5 mg/mL): > 2000 µg/mL; solubility at 30 min ([3]; BSA 40 mg/mL, read-out: Solubility of BSA-containing formulations after 30 min incubation at 18° C., 40 mg/mL): < 2000 µg/mL; solubility ([3]; BSA 40 mg/mL, read-out: Solubility of BSA-containing formulations after overnight incubation at 18° C., 40 mg/mL): < 2000 µg/mL; solubility at 30 min ([3]; BSA 60 mg/mL, read-out: Solubility of BSA-containing formulations after 30 min incubation at 18° C., 60 mg/mL): < 2000 µg/mL; solubility ([3]; BSA 60 mg/mL, read-out: Solubility of BSA-containing formulations after overnight incubation at 18° C., 60 mg/mL): < 2000 µg/mL; solubility at 30 min ([3]; BSA 80 mg/mL, read-out: Solubility of BSA-containing formulations after 30 min incubation at 18° C., 80 mg/mL): < 2000 µg/mL; solubility ([3]; BSA 80 mg/mL, read-out: Solubility of BSA-containing formulations after overnight incubation at 18° C., 80 mg/mL): < 2000 µg/mL; solubility at 30 min ([3]; BSA 100 mg/mL, read-out: Solubility of BSA-containing formulations after 30 min incubation at 18° C., 100 mg/mL): < 2000 µg/mL; solubility ([3]; BSA 100 mg/mL, read-out: Solubility of BSA-containing formulations after overnight incubation at 18° C., 100 mg/mL): < 2000 µg/mL; solubility at 30 s ([3]; BSA 40 mg/mL, read-out: Solubility of BSA-containing formulations post vortexing, 40 mg/mL): < 2000 µg/mL; solubility at 30 s ([3]; BSA 60 mg/mL, read-out: Solubility of BSA-containing formulations post vortexing, 60 mg/mL): < 2000 µg/mL; solubility at 30 s ([3]; BSA 80 mg/mL, read-out: Solubility of BSA-containing formulations post vortexing, 80 mg/mL): < 2000 µg/mL; solubility at 30 s ([3]; BSA 100 mg/mL, read-out: Solubility of BSA-containing formulations post vortexing, 100 mg/mL): < 2000 µg/mL
